Data published in PubChem BioAssay (NCI).
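Cells were grown in 96-well plates and exposed to each compound for 48 hours at five concentrations; endpoints were interpolated linearly between bracketing concentrations, or set to the highest concentration if not reached. GI50: concentration for 50% inhibition of growth. TGI: total growth inhibition.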 Where a SMILES comes first, the peptide text is derived from it. The star is where a group is joined. Ethyl(2-NMe3+) = C[N+](C)(C)CC*; Boc = CC(C)(C)OC(=O)*

How the values were obtained:
Assay in all cases: inhibition of tumour cell growth, NCI panel, 48 h
A549 NSCLC = test system: A549 NSCLC
DU-145 prostate = test system: DU-145 prostate
HCT-116 colon = test system: HCT-116 colon
HOP-62 NSCLC = test system: HOP-62 NSCLC
HS 578T breast = test system: HS 578T breast
K-562 leukemia = test system: K-562 leukemia
MCF7 breast = test system: MCF7 breast
NCI-H460 lung = test system: NCI-H460 lung
NCI/ADR-RES ovarian = test system: NCI/ADR-RES ovarian
OVCAR-3 ovarian = test system: OVCAR-3 ovarian
OVCAR-8 ovarian = test system: OVCAR-8 ovarian
RXF 393 renal = test system: RXF 393 renal
SK-MEL-28 melanoma = test system: SK-MEL-28 melanoma
TK-10 renal = test system: TK-10 renal
U251 CNS = test system: U251 CNS
OVCAR-4 ovarian = test system: OVCAR-4 ovarian
SNB-75 CNS = test system: SNB-75 CNS

SMILES	TGI (A549 NSCLC) [µM]	TGI (DU-145 prostate) [µM]	TGI (HCT-116 colon) [µM]	TGI (HOP-62 NSCLC) [µM]	TGI (HS 578T breast) [µM]	TGI (K-562 leukemia) [µM]	TGI (MCF7 breast) [µM]	TGI (NCI-H460 lung) [µM]	TGI (NCI/ADR-RES ovarian) [µM]	TGI (OVCAR-3 ovarian) [µM]	TGI (OVCAR-8 ovarian) [µM]	TGI (RXF 393 renal) [µM]	TGI (SK-MEL-28 melanoma) [µM]	TGI (TK-10 renal) [µM]	TGI (U251 CNS) [µM]	TGI (OVCAR-4 ovarian) [µM]	TGI (SNB-75 CNS) [µM]	GI50 (OVCAR-4 ovarian) [µM]	GI50 (SK-MEL-28 melanoma) [µM]	GI50 (SNB-75 CNS) [µM]
COc1cc([C@H]2CC(=O)C[C@H](c3cc(OC)c(OC)c(OC)c3)C23C(=O)c2ccccc2C3=O)cc(OC)c1OC	> 100	> 100	63.7	> 100	> 100	> 100	> 100	> 100	> 100	> 100	> 100	88.7	> 100	> 100	> 100					
CC(NC(=O)C(Cc1ccc(OCC[N+](C)(C)C)cc1)NC(=O)OC(C)(C)C)C(=O)NC(Cc1ccccc1)C(=O)NCC(N)=O (stereo not given) (Boc-Y(Ethyl(2-NMe3+))AFG-NH2; configuration not given here)	> 100	> 100	> 100	14.5	83	> 100	> 100	> 100	> 100	60.3	55.3	24	> 100	24	12.8	> 100	30.3			
COc1ccc(/C=C2\N=C(SC)N(CN3CCCCC3)C2=O)cc1	> 100	> 100	> 100	> 100	> 100	> 100	> 100		> 100	> 100	> 100		> 100	> 100	> 100	> 100	> 100			
Cc1c(F)c(N)c2c(=O)cc(-c3ccc(N)c(F)c3)oc2c1F	59	> 100	38.2	46.8	> 95	> 92.9	4.39	24.2	42.4	> 100	58.7	41.6	> 95.2	6.72	33.1	48.8	56.2			
CC(C)(C)OC(=O)NC(CCC(=O)OCc1ccccc1)C(=O)NCCCO (stereo not given)	> 100	> 100	> 100	> 100	> 100	> 100	> 100	> 100	> 100	> 100	> 100	> 100	> 100	> 100	> 100	> 100	> 100			
COC(=O)c1c2c(cc3c1CC1(Cc4ccc(C(C)=O)cc4C1)C3)CCC2 (stereo not given)	> 100	> 100	> 100	> 100	80.7	> 100	> 100	> 100	> 100	> 100	> 100	80	> 100	> 100	> 100	> 100	> 100			
COC(=O)[C@@H](NC(=O)N(CCC#N)CCCN(C(=O)N[C@H](Cc1ccccc1)C(=O)OC)c1ccccc1)C(C)C	> 100	> 100	> 100	> 100	> 100		> 100		> 100	> 100	> 100	> 100	> 100	> 100	> 100	> 100	> 100			
CC1=C(C(=O)N(C(C)C)C(C)C)CC(C(=O)N(C(C)C)C(C)C)=C(C)N1	> 100	> 100	> 100	> 100	> 100	> 100	> 100	> 100	> 100	> 100	> 100	> 100		> 100	> 100	> 100	> 100			
CC(=O)c1cccc(Nc2nc3ccc(Cl)cc3c3[nH]c4ccccc4c23)c1	8.45	26.8	> 54.5	15.4	66.4	> 56.7	> 21.9	6.41	79.5	8.16	32.7		> 100	25.8	14.7	21.5	8.16	3.56	16.5	2.04
O=[N+]([O-])c1cc2c(c([N+](=O)[O-])c1)NCc1ccccc1O2	> 100	> 100	> 100	> 100	> 100		> 100	> 100	> 100	> 100	> 100	> 100	> 100	> 100	> 100	> 100	48.2			
O=C(Cc1ccc(Cl)cc1)Nc1ccc2oc(-c3ccccc3)nc2c1	> 100	> 100	> 100	> 100	> 100	> 100	> 100	> 100	> 100	> 100	> 100	> 100	> 100	> 100	> 100	> 100	72.1			
COc1cc(/C=C2\C(=O)N(c3ccccc3Cl)C(c3ccccc3)S2(=O)=O)cc(OC)c1OC (stereo not given)	> 100	> 100	> 100	> 100	> 100	94.9	> 100	> 100	> 100	> 100	> 100	76.7	> 100	> 100	81.8	> 100				
COc1ccc(N2C(=O)C(C)SC2c2cc3cc(Br)ccc3nc2Cl)cc1 (stereo not given)	> 100	> 100	> 100	> 100	> 100	> 100	> 100	> 100	85.8	> 100	> 100	93.6	> 100	91.4		> 100	> 100			
N#Cc1cc(-c2nc3c(F)cccc3s2)ccc1N	> 100	> 100	> 100	> 100	> 100	> 100	4.06	> 100	> 100	> 100	> 100	> 100		> 100	> 100	> 100	> 100			
O=C(c1ccccc1)N1OCCC1Nc1ccc(Br)cc1 (stereo not given)	> 10	> 10	> 10	> 10	> 10	> 10	> 10	> 10	> 10	> 10	> 10	> 10	> 10	> 10		> 10	> 10			
Nc1[nH]c(=S)c2c(N)n[nH]c2c1C(=O)Nc1ccccc1	> 100	> 100	> 100		> 100	> 100	> 100	> 100	> 100	> 100	> 100	> 100	> 100	> 100	> 100	> 100	> 100			
CC1OC(OC2C(OC(=O)[C@@H]3CC(C)(C)C[C@@H]4C5=CC[C@@H]6[C@@]7(C)C[C@H](O)[C@H](OC8OC(CO)C(O)C(O)C8O)[C@@](C)(CO)C7[C@H](O)C[C@@]6(C)[C@]5(C)C[C@@H](O)[C@H]43)OCC(O)C2O)C(O)C(O)C1O (stereo not given in full)		> 15	> 15	> 15	> 15	> 15	> 15	> 15	> 15	> 15	> 15	> 15		> 15	> 15	> 15	> 15			
C[C@]12C[C@@H](c3ccccc3)Nc3ccccc3N1C(c1ccccc1)=NO2	> 100	> 100	> 100	> 100	> 100	> 100	> 100	> 100	> 100	> 100	> 100	> 100		> 100	> 100	81.9	69.4			
Cc1ccc(N(C(=O)Nc2ccc(F)c(Cl)c2)C2=NCC(C)S2)cc1 (stereo not given)	> 100	> 100	> 100	> 100	> 100	> 100	32.6	> 100	73.2	> 100	> 100		> 100	> 100	> 100	> 100	> 100			
NC(=S)N/N=C1/CCCC2CCCC[C@@H]12 (stereo not given in full)	> 100	> 100		> 100	> 100	> 100	> 100	> 100	> 100	> 100	> 100	> 100	> 100	> 100	> 100	> 100	> 100			
CC(C)=c1sc(=C(C)C)c2c1=NC(C)(C)N=2	> 100	> 100	> 100	> 100	> 100		> 100	> 100	> 100	> 100	> 100	> 100	> 100	> 100	> 100	> 100				
Cc1ccc(/C=C2\CN(C)CC3C2=NN(c2ccccc2)C3c2ccc(C)cc2)cc1 (stereo not given)	> 100	> 100	> 100	> 100	> 100	> 100	> 100	> 100	> 100	> 100	> 100	> 100	> 100	> 100	> 100	> 100				
NC(=O)C1Cc2cc3c(cc21)OCO3 (stereo not given)	> 100	> 100	> 100	> 100	> 100		> 100	> 100	> 100	> 100	> 100	> 100		> 100			> 100			
CCOC(=O)[C@@H]1CCN2CN(c3ccc(OC)cc3)N=C(c3ccccc3)[C@@]12c1ccccc1	> 100	70.7	40.2	62.6	70.3	> 100	50	> 100	67.9		61.3	35.7	56	> 100	79.6	> 100	57.7			
Nc1ncnc2c1ncn2C1OC(CO)C(O)C(O)C1O (stereo not given)	> 100	> 100	> 100	> 100	> 100	> 100	> 100	> 100	> 100	> 100	> 100		> 100	> 100	> 100	> 100	> 100			
COc1ccc2c(c1)-c1[nH]c3ccc(OC)cc3c1CC2	30.2	32.9	32.4	30.9	28	39.6	89.7	32.9	24.8	32.9	27.3		32.4	31.5	39.2	29.4	26.9			
COc1cccc(-c2nc3ccccc3c(=O)[nH]2)c1OC	> 100	> 100	> 100	> 100	> 100		> 100	> 100	> 100	> 100	> 100	> 100			> 100	> 100	> 100			
CC(C)(C)c1ccc(-n2c3nc(=O)n(-c4ccccc4CO)c(=O)c-3cc3ccccc32)cc1	> 100	> 100	> 100		> 100	> 100	> 100	> 100	> 100		> 100	55.2	> 100	> 100	> 100	> 100	> 100			
